pIC50: −log10 of the molar value. The source made the active and inactive calls. No cut-off for these calls is given here.
Tests used:
[1] = organism: Homo sapiens; test: Anti-inflammatory in human articular chondrocytes assessed as inhibition of IL-1beta-induced NFkappa-B p65 production at 2.5 to 10 uM after 72 hrs by Western blot analysis; type: functional, cell-based
[2] = organism: Homo sapiens; test: Anti-inflammatory in human articular chondrocytes assessed as inhibition of IL-1beta-induced ICAM-1 production at 2.5 to 10 uM after 72 hrs by Western blot analysis; type: functional, cell-based
[3] = Cytotoxicity against human articular chondrocytes assessed as cell viability at 2.5 to 10 uM by MTT assay
[4] = organism: Homo sapiens; test: Anti-inflammatory in human articular chondrocytes assessed as inhibition of IL-1beta-induced nitrite production after 72 hrs by Griess assay; type: functional, cell-based
[5] = organism: Homo sapiens; test: Anti-inflammatory in human articular chondrocytes assessed as inhibition of IL-1beta-induced reduction of GAG level after 72 hrs by spectrophotometry analysis; type: functional, cell-based
[6] = Antioxidant activity of the compound in AAPH solution assessed as trolox equivalents for reduction of oxidative degradation by ORAC assay; type: physicochemical
[7] = molecular target: Stromelysin-1 (Homo sapiens, UniProt P08254); test: Inhibition of MMP3 (unknown origin) using Pro-Leu-Gly-Leu-Dpa-Ala-Arg-NH2 as substrate after 3 mins by fluorimetric assay; conditions: for pIC50: read-out: IC50
Stromelysin-1, sequence (P08254 whole entry): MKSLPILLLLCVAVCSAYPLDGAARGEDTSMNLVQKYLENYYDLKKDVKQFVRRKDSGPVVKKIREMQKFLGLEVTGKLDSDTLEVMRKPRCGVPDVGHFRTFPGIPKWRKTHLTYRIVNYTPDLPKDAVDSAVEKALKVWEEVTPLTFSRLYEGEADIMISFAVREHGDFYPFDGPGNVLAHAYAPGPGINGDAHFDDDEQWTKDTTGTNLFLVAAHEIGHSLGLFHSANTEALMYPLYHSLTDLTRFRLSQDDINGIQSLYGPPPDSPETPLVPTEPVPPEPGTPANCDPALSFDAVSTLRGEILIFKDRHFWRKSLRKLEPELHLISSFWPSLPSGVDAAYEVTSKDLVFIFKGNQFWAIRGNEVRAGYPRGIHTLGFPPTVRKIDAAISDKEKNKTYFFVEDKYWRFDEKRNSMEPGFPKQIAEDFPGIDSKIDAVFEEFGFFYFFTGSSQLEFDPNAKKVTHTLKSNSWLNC

[8] = molecular target: Collagenase 3 (Homo sapiens, UniProt P45452); test: Inhibition of MMP13 (unknown origin) using Pro-Leu-Gly-Leu-Dpa-Ala-Arg-NH2 as substrate after 3 mins by fluorimetric assay

Row | Activity [6] | pIC50 [7] | pIC50 [8] | IC50 [7] | Structure (SMILES) | inhibition [1] | inhibition [2] | Activity [3] | inhibition [4] | inhibition [5]
1 | 1.078 µM | 4.23 | 5.16 |  | O=C(O)CN1C(=O)/C(=C/c2ccc(OCc3ccccc3)cc2)SC1=S | Active | Active | Non-toxic | Dose-dependent effect | Dose-dependent effect
2 | 0.6 µM | 4.11 | 6.19 |  | O=C1NC(=S)S/C1=C\c1ccc(OCc2ccccc2)cc1 | Active | Active | Non-toxic | Dose-dependent effect | Dose-dependent effect
3 | 0.61 µM | 4.85 | 5.33 |  | O=C(O)CN1C(=O)/C(=C/c2cccc(Oc3ccccc3)c2)SC1=S | Active | Active | Non-toxic | Dose-dependent effect | Dose-dependent effect
4 | 0.63 µM |  | 5.23 | Not Active | O=C1NC(=S)S/C1=C\c1cccc(OCc2ccccc2)c1 | Active | Active | Non-toxic | Dose-dependent effect | Dose-dependent effect
5 | 0.52 µM | 4.32 | 5.40 |  | O=C1NC(=S)S/C1=C\c1ccc(Oc2ccccc2)cc1 | Active | Active | Non-toxic | Dose-dependent effect | Dose-dependent effect
6 | 0.39 µM | 4.76 | 4.26 |  | O=C1NC(=S)S/C1=C\c1cccc(Oc2ccccc2)c1 | Active | Active | Non-toxic | Dose-dependent effect | Dose-dependent effect
7 | 0.76 µM | 5.05 | 5.42 |  | O=C(O)CN1C(=O)/C(=C/c2ccc(Oc3ccccc3)cc2)SC1=S | Active | Active | Non-toxic | Dose-dependent effect | Dose-dependent effect
8 | 0.65 µM | 5.38 | 5.80 |  | O=C(O)CN1C(=O)/C(=C/c2cccc(OCc3ccccc3)c2)SC1=S | Active | Active | Non-toxic | Dose-dependent effect | Dose-dependent effect

— ChEMBL document CHEMBL3739381, “Evaluation of the anti-inflammatory/chondroprotective activity of aldose reductase inhibitors in human chondrocyte cultures” (Medchemcomm, 2015)
